# Reference: US8436039B2, “Inhibitors of the ATB(0,+) transporter and uses thereof” (Georgia Health Sciences University Research Institute, Inc., priority 2008, dated 2013)
# Tested on: MCF10A and MDA-MB453 cell lines
# Assay: Cell cycle analysis (FACS, propidium iodide) in ATB^0,+-negative cell lines
# Assay type: cell-based, human
# Settings: 2.5 mM; 24, 48 and 72 hours
# Procedure: MCF10A (an ATB^0,+-negative non-malignant cell line), MCF7 (an ATB^0,+-positive malignant cell line) and MDA-MB453 (an ATB^0,+-negative malignant cell line) cells were cultured in 6-well plates in a regular culture medium in the presence or absence of α-methyl-DL-tryptophan (2.5 mM) for 24, 48 and 72 hours. Cells were fixed in 50% (v/v) ethanol, treated with 0.1% sodium citrate, 1 mg/ml RNase A and 50 μg/ml propidium iodide, and subjected to FACS (Becton Dickinson FACSCalibur™) analysis. The amount of DNA in these cells, detected as chromosome content by propidium iodide binding, was used to identify cells in various stages of cell cycle: G1/G0, 2N; S, 2-4 N; G2/M, 4N (where N is the normal chromosome content).
# Since treatment with α-methyl-DL-tryptophan suppressed colony formation in malignant cell lines in an ATB^0,+-dependent manner, we investigated the influence of this treatment on cell cycle to determine which stage of the cycle is affected. We used three different cell lines in this experiment: MCF10A (non-malignant and ATB^0,+-negative), MCF7 (malignant and ATB^0,+-positive) and MDA-MB453 (malignant and ATB^0,+-negative) (FIG. 9). […] In contrast, the treatment affected the cell cycle progression in the ATB^0,+-positive MCF7 cell line. The cells were arrested at G1/G0 stage to a significant extent when treated with α-methyl-DL-tryptophan. […]
smiles,measurement,value
CC(N)(Cc1c[nH]c2ccccc12)C(=O)O (racemic) [α-methyl-DL-tryptophan],effect on cell cycle,no effect on cell cycle
